Data on ten compounds can be found in ChEMBL document CHEMBL4364299, “Discovery of a Potent Kelch-Like ECH-Associated Protein 1-Nuclear Factor Erythroid 2-Related Factor 2 (Keap1-Nrf2) Protein-Protein Interaction Inhibitor with Natural Proline Structure as a Cytoprotective Agent against Acetaminophen-Induced Hepatotoxicity” (J Med Chem, 2019).

Assay [1] has as its target Kelch-like ECH-associated protein 1 (Homo sapiens, UniProt Q14145). The assay is described as follows: Displacement of FITC-LDEETGEFL-NH2 from human KEAP1 Kelch domain (322 to 609 residues) measured after 30 mins by fluorescence polarization assay. On the technique in general: Fluorescence polarisation rises when a labelled molecule tumbles more slowly, as on binding a larger partner.

Assay [2] has as its target T1, Nuclear factor erythroid 2-related factor 2 (Homo sapiens) (UniProt Q16236).
T1 sequence (whole entry): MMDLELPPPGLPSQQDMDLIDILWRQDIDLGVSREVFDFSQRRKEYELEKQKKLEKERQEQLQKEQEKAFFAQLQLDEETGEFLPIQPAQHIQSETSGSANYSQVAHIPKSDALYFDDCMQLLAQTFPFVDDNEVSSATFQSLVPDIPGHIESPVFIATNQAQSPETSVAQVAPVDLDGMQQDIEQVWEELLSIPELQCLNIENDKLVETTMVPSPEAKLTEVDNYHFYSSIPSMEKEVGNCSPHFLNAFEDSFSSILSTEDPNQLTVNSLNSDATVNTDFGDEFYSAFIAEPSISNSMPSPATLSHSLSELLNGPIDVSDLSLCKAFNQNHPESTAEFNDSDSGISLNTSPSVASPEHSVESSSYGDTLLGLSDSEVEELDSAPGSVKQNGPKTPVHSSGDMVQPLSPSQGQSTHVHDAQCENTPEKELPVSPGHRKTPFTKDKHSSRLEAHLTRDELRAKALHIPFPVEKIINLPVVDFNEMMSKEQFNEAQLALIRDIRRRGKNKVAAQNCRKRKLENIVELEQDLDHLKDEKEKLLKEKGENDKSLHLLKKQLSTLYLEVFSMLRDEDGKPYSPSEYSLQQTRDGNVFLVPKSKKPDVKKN
The assay is described as follows: Activation of Nrf2 (unknown origin) stably transfected in human HepG2-ARE-C8 cells assessed as increase in ARE-driven luciferase activity at 0.01 uM by luciferase reporter gene assay relative to control. The assay is classed as cell-based. A general note: A reporter such as luciferase makes a cellular process visible.

Assay [3] addresses T1, Nuclear factor erythroid 2-related factor 2 (Homo sapiens). The assay is described as follows: Activation of Nrf2 (unknown origin) stably transfected in human HepG2-ARE-C8 cells assessed as increase in ARE-driven luciferase activity at 1 uM by luciferase reporter gene assay relative to control. The format is cell-based.
Assay [4] shares this target. The assay is described as follows: Activation of Nrf2 (unknown origin) stably transfected in human HepG2-ARE-C8 cells assessed as increase in ARE-driven luciferase activity at 0.1 uM by luciferase reporter gene assay relative to control. The format is cell-based.
Assay [5] has the same target. The assay is described as follows: Activation of Nrf2 (unknown origin) stably transfected in human HepG2-ARE-C8 cells assessed as increase in ARE-driven luciferase activity at 5 uM by luciferase reporter gene assay relative to control. The assay is classed as cell-based.
Assay [6] has the same target. Nature of the assay: Activation of Nrf2 (unknown origin) stably transfected in human HepG2-ARE-C8 cells assessed as increase in ARE-driven luciferase activity at 20 uM by luciferase reporter gene assay relative to control. The assay is classed as cell-based.
For assay [7] the target is unchanged. Nature of the assay: Activation of Nrf2 (unknown origin) stably transfected in human HepG2-ARE-C8 cells assessed as increase in ARE-driven luciferase activity at 10 uM by luciferase reporter gene assay relative to control. The assay is classed as cell-based.

Kelch-like ECH-associated protein 1, sequence (Q14145 whole entry, the tested form may be a part): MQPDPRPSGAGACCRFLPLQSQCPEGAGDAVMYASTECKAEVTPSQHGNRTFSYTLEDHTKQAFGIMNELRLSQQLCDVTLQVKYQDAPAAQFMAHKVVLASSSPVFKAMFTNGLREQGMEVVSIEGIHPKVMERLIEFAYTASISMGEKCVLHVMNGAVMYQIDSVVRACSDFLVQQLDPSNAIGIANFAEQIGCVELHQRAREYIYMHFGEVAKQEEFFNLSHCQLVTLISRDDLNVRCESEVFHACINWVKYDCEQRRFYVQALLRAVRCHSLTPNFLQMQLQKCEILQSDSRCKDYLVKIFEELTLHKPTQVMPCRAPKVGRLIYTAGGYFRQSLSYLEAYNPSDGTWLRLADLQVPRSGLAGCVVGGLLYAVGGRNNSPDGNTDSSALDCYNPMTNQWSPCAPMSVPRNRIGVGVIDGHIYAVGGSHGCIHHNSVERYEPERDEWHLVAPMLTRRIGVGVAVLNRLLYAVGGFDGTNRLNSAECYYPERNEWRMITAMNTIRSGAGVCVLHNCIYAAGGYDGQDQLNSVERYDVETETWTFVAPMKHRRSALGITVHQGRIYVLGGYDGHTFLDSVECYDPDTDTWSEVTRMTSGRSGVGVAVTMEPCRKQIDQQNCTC

The term IC50 denotes the midpoint of a concentration-inhibition curve. On to `COc1ccc(S(=O)(=O)Nc2ccc(N[C@@H](C)C(=O)O)c3ccccc23)cc1`, for which the concentration for half-maximal inhibition (IC50) in assay [1] is more than 50 µM.
Turning to `CC(C)(C)c1cc(O)ccc1O`, the fold change (FC) in assay [2] is 1.04; in assay [3], 1.46; in assay [4] it was 1.02; in assay [5] it was 2.27; in assay [6], 4.87; in assay [7], 3.38.
As for `COc1ccc(S(=O)(=O)Nc2ccc(N[C@H](C(=O)O)C(C)C)c3ccccc23)cc1`, in assay [1], the concentration for half-maximal inhibition (IC50) was more than 50 µM.
The compound `COc1ccc(S(=O)(=O)Nc2ccc(N[C@@H](CCS(C)(=O)=O)C(=O)O)c3ccccc23)cc1` returned an IC50 in assay [1] of more than 50 µM.
In turn, `COc1ccc(S(=O)(=O)Nc2ccc(N[C@@H](CO)C(=O)O)c3ccccc23)cc1` showed an IC50 in assay [1] of more than 50 µM.
Take `COc1ccc(S(=O)(=O)Nc2ccc(N[C@@H](Cc3ccc(O)cc3)C(=O)O)c3ccccc23)cc1`: the half-inhibitory concentration (IC50) in assay [1] is more than 50 µM.
On the same count and under the same terms, to `COc1ccc(S(=O)(=O)Nc2ccc(N[C@@H](CC(C)C)C(=O)O)c3ccccc23)cc1` belongs more than 50 µM; to `COc1ccc(S(=O)(=O)Nc2ccc(N[C@@H](Cc3c[nH]c4ccccc34)C(=O)O)c3ccccc23)cc1`, more than 50 µM; to `COc1ccc(S(=O)(=O)N(CC(=O)O)c2ccc(N[C@@H](CO)C(=O)O)c3ccccc23)cc1`, more than 50 µM.
Same read-out and setting: to `COc1ccc(S(=O)(=O)Nc2ccc(N[C@H](C(=O)O)C(C)(C)C)c3ccccc23)cc1` belongs more than 50 µM.
